Source: paper PMC9656319, “Pharmacokinetics and Tissue Distribution of Coumarins from Tagetes lucida in an LPS-Induced Neuroinflammation Model” (Plants, 2022)

Columns and labels:
[1] = Stability of the analytes in spiked plasma, brain, kidney and spleen matrices (autosampler, long-term, freeze-thaw); type: physicochemical, mice; conditions: for Stability Autosampler RE (%): processed samples in autosampler vials 24 h room temperature; for Stability Freeze-Thaw RE (%): three cycles (−4 °C to 25 °C); for Stability Long-Term RE (%): −70 °C for 30 days
Experimental: The stability of the compounds obtained from each enriched matrices at the QC concentrations was evaluated under different conditions that covered the processing, handling, and storage phases that could be developed throughout the study.
Individual stock solutions of PE, SC, DF, HR, PU, and rutin (IS) were prepared separately in methanol (1 mg/mL) and stored at −4 °C until use. From the stocks, a working solution in methanol was prepared at a concentration of 200 µg/mL of each coumarin. Blank plasma or organs supernatant samples (80 µL) were spiked with 20 µL of serial dilutions of working solution to obtain calibration curves ranging between 0.156, 0.312, 0.625, 1.25, 2.5, 5, 10, 20, and 40 µg/mL of each coumarin. Quality control (QC) samples were prepared at three levels of 0.3 (low), 3 (medium), and 30 (high) µg/mL for each coumarin.
The stability of the analytes in plasma, brain, kidneys, and spleen was evaluated by the analyzed concentrations of QC subjected to three different conditions. Short-term stability was determined by analysis of samples processed in the autosampler vials at 24 h at room temperature. Long-term stability was tested on samples stored at −70 °C for 30 days. Freeze-thaw stability was determined after three cycles (−4 °C to 25 °C) on three consecutive days.

[2] = Pharmacokinetic study in plasma after oral hexanic extract of Tagetes lucida, healthy and LPS-damaged mice; type: in vivo, ICR mice; conditions: for amount of drug available in the plasma, LPS mice compared to healthy subjects / Cmax / AUC(0-inf) / MRT / Tmax / half-life / AUC(0-t) / Cl/F: 10 mg/kg oral hexanic extract; for amount of drug available in the plasma, LPS mice compared to healthy subjects: concentration-time profiles (Figure 3); for Cmax / AUC(0-inf) / MRT / Tmax / half-life / AUC(0-t): ICR, mouse, po, 10 mg/kg; for Cmax: non-compartmental; for Cmax / AUC(0-inf) / MRT / Tmax / half-life / AUC(0-t) / Cl/F: mean ± SEM (n = 5); for AUC(0-t): to 6 h
Experimental: The optimized HPLC-validated method for the quantification of coumarins present in the hexane extract of T. lucida was used to evaluate the concentration profiles over time in the plasma, brain, kidney, and spleen biological matrices after an oral administration of 10 mg/kg of the extract.
Blood samples were obtained from the retro-orbital sinus of mice and collected in heparinized tubes. Plasma was separated by centrifugation at 3500 rpm for 5 min and stored in new Eppendorf tubes at −70 °C, until further processing.
One hundred microliters of plasma and organs samples, spiked with calibration and QC concentration or samples from the pharmacokinetic study, were mixed with 300 µL of acetonitrile containing the IS at 10 µg/mL for protein precipitation, and vortexed for 3 min. Then, 200 µL of dichloromethane were added, for liquid–liquid extraction of the bioactive compounds, and vortexed for 5 min. The mixture was centrifuged at 14,000 rpm for 10 min, and the extracted organic layers were placed in new tubes, until completely dry at room temperature. For quantitative analysis, samples were resuspended in 100 µL of methanol, transferred to sampling vials, and injected into the chromatographic system, described below.
A pharmacokinetic study was carried out in sixty mice, divided in six subgroups, according to sample collection times. An acute inflammation process by the intraperitoneal (i.p.) administration of LPS at 2 mg/kg was induced in half of the mice per group, while the other half received an i.p. injection of saline solution. Ten min after the damage was induced, the mice were administered with an oral dose of 10 mg/kg of the bioactive fraction dissolved in a 1% Tween-20 aqueous solution. Blood and tissue samples were obtained and processed at 0, 0.25, 0.75, 1.5, 2, 4, and 6 h post-dosing, as indicated in the “Samples collection” and “Plasma and tissue samples processing” sections.
Pharmacokinetic parameters of PE, SC, DF, HR, and PU in plasma were calculated by PKSolver software.

[3] = plasma, LPS-damaged ICR mice (LPS 2 mg/kg i.p.)

Compound: COc1cc2ccc(=O)oc2c(OC)c1OC [DF, dimethylfraxetin]
- Stability Autosampler RE (%) ([1]; brain, nominal 0.3 µg/mL): -4.07%
- Stability Freeze-Thaw RE (%) ([1]; brain, nominal 0.3 µg/mL): 0.03%
- Stability Long-Term RE (%) ([1]; brain, nominal 0.3 µg/mL): -0.62%
- Stability Autosampler RE (%) ([1]; brain, nominal 3.0 µg/mL): 3.73%
- Stability Freeze-Thaw RE (%) ([1]; brain, nominal 3.0 µg/mL): -6.72%
- Stability Long-Term RE (%) ([1]; brain, nominal 3.0 µg/mL): 0.46%
- Stability Autosampler RE (%) ([1]; brain, nominal 30.0 µg/mL): 3.21%
- Stability Freeze-Thaw RE (%) ([1]; brain, nominal 30.0 µg/mL): -0.35%
- Stability Long-Term RE (%) ([1]; brain, nominal 30.0 µg/mL): -4.35%
- Stability Autosampler RE (%) ([1]; kidney, nominal 0.3 µg/mL): 5.83%
- Stability Freeze-Thaw RE (%) ([1]; kidney, nominal 0.3 µg/mL): -0.65%
- Stability Long-Term RE (%) ([1]; kidney, nominal 0.3 µg/mL): 5.19%
- Stability Autosampler RE (%) ([1]; kidney, nominal 3.0 µg/mL): 4.79%
- Stability Freeze-Thaw RE (%) ([1]; kidney, nominal 3.0 µg/mL): 0.82%
- Stability Long-Term RE (%) ([1]; kidney, nominal 3.0 µg/mL): 8.12%
- Stability Autosampler RE (%) ([1]; kidney, nominal 30.0 µg/mL): 0.66%
- Stability Freeze-Thaw RE (%) ([1]; kidney, nominal 30.0 µg/mL): 0.47%
- Stability Long-Term RE (%) ([1]; kidney, nominal 30.0 µg/mL): 5.67%
- Stability Autosampler RE (%) ([1]; plasma, nominal 0.3 µg/mL): 2.59%
- Stability Freeze-Thaw RE (%) ([1]; plasma, nominal 0.3 µg/mL): -12.33%
- Stability Long-Term RE (%) ([1]; plasma, nominal 0.3 µg/mL): -6.74%
- Stability Autosampler RE (%) ([1]; plasma, nominal 3.0 µg/mL): -1.38%
- Stability Freeze-Thaw RE (%) ([1]; plasma, nominal 3.0 µg/mL): 2.47%
- Stability Long-Term RE (%) ([1]; plasma, nominal 3.0 µg/mL): -3.13%
- Stability Autosampler RE (%) ([1]; plasma, nominal 30.0 µg/mL): 4.21%
- Stability Freeze-Thaw RE (%) ([1]; plasma, nominal 30.0 µg/mL): 0.49%
- Stability Long-Term RE (%) ([1]; plasma, nominal 30.0 µg/mL): -3.40%
- Stability Autosampler RE (%) ([1]; spleen, nominal 0.3 µg/mL): 6.88%
- Stability Freeze-Thaw RE (%) ([1]; spleen, nominal 0.3 µg/mL): -0.67%
- Stability Long-Term RE (%) ([1]; spleen, nominal 0.3 µg/mL): 5.43%
- Stability Autosampler RE (%) ([1]; spleen, nominal 3.0 µg/mL): -1.66%
- Stability Freeze-Thaw RE (%) ([1]; spleen, nominal 3.0 µg/mL): 0.49%
- Stability Long-Term RE (%) ([1]; spleen, nominal 3.0 µg/mL): 7.09%
- Stability Autosampler RE (%) ([1]; spleen, nominal 30.0 µg/mL): 1.50%
- Stability Freeze-Thaw RE (%) ([1]; spleen, nominal 30.0 µg/mL): -1.06%
- Stability Long-Term RE (%) ([1]; spleen, nominal 30.0 µg/mL): 7.60%
- amount of drug available in the plasma, LPS mice compared to healthy subjects [2]: three-fold higher
- Cmax [2, 3]: 1820 ± 270 ng/mL
- AUC(0-inf) ([2]; plasma, LPS-damaged ICR mice): 3610 ± 400 ng·h/mL
- MRT ([2]; plasma, LPS-damaged ICR mice): 2.72 ± 0.3 h
- Tmax ([2]; plasma, LPS-damaged ICR mice): 0.6 ± 0.24 h
- half-life ([2]; plasma, LPS-damaged ICR mice): 1.5 ± 0.37 h
- AUC(0-t) ([2]; plasma, LPS-damaged ICR mice): 3250 ± 310 ng·h/mL
- AUC(0-inf) ([2]; plasma, healthy ICR mice): 1710 ± 190 ng·h/mL
- MRT ([2]; plasma, healthy ICR mice): 2.35 ± 0.33 h
- Tmax ([2]; plasma, healthy ICR mice): 1.2 ± 0.31 h
- half-life ([2]; plasma, healthy ICR mice): 0.98 ± 0.27 h
- Cmax ([2]; plasma, healthy ICR mice): 580 ± 20 ng/mL
- AUC(0-t) ([2]; plasma, healthy ICR mice): 1640 ± 170 ng·h/mL
- pharmacokinetic characteristics in words ([2]; LPS-treated mice, plasma, Figure 3b, 3c): fast distribution and subsequent elimination
- Cl/F ([2]; plasma, LPS-damaged ICR mice): 28.81 ± 2.51 (mg/kg)/(μg/mL)/h
- increase in the Cmax in the damaged animals versus healthy ([2]; plasma, LPS-damaged vs healthy mice): up to three times more
- Cl/F ([2]; plasma, healthy ICR mice): 62.45 ± 9.38 (mg/kg)/(μg/mL)/h

Compound: COc1ccc2ccc(=O)oc2c1 [HR, herniarin]
- Stability Autosampler RE (%) ([1]; brain, nominal 0.3 µg/mL): -3.47%
- Stability Freeze-Thaw RE (%) ([1]; brain, nominal 0.3 µg/mL): -0.69%
- Stability Long-Term RE (%) ([1]; brain, nominal 0.3 µg/mL): -0.21%
- Stability Autosampler RE (%) ([1]; brain, nominal 3.0 µg/mL): 2.31%
- Stability Freeze-Thaw RE (%) ([1]; brain, nominal 3.0 µg/mL): -5.14%
- Stability Long-Term RE (%) ([1]; brain, nominal 3.0 µg/mL): -0.98%
- Stability Autosampler RE (%) ([1]; brain, nominal 30.0 µg/mL): 3.86%
- Stability Freeze-Thaw RE (%) ([1]; brain, nominal 30.0 µg/mL): -1.02%
- Stability Long-Term RE (%) ([1]; brain, nominal 30.0 µg/mL): -4.72%
- Stability Autosampler RE (%) ([1]; kidney, nominal 0.3 µg/mL): 8.17%
- Stability Freeze-Thaw RE (%) ([1]; kidney, nominal 0.3 µg/mL): 2.03%
- Stability Long-Term RE (%) ([1]; kidney, nominal 0.3 µg/mL): 5.12%
- Stability Autosampler RE (%) ([1]; kidney, nominal 3.0 µg/mL): 2.81%
- Stability Freeze-Thaw RE (%) ([1]; kidney, nominal 3.0 µg/mL): -0.62%
- Stability Long-Term RE (%) ([1]; kidney, nominal 3.0 µg/mL): 3.06%
- Stability Autosampler RE (%) ([1]; kidney, nominal 30.0 µg/mL): 1.35%
- Stability Freeze-Thaw RE (%) ([1]; kidney, nominal 30.0 µg/mL): 2.25%
- Stability Long-Term RE (%) ([1]; kidney, nominal 30.0 µg/mL): 3.32%
- Stability Autosampler RE (%) ([1]; plasma, nominal 0.3 µg/mL): 8.34%
- Stability Freeze-Thaw RE (%) ([1]; plasma, nominal 0.3 µg/mL): 0.67%
- Stability Long-Term RE (%) ([1]; plasma, nominal 0.3 µg/mL): 9.39%
- Stability Autosampler RE (%) ([1]; plasma, nominal 3.0 µg/mL): 12.83%
- Stability Freeze-Thaw RE (%) ([1]; plasma, nominal 3.0 µg/mL): -7.90%
- Stability Long-Term RE (%) ([1]; plasma, nominal 3.0 µg/mL): 3.99%
- Stability Autosampler RE (%) ([1]; plasma, nominal 30.0 µg/mL): 14.32%
- Stability Freeze-Thaw RE (%) ([1]; plasma, nominal 30.0 µg/mL): -5.47%
- Stability Long-Term RE (%) ([1]; plasma, nominal 30.0 µg/mL): 3.55%
- Stability Autosampler RE (%) ([1]; spleen, nominal 0.3 µg/mL): 5.46%
- Stability Freeze-Thaw RE (%) ([1]; spleen, nominal 0.3 µg/mL): -0.63%
- Stability Long-Term RE (%) ([1]; spleen, nominal 0.3 µg/mL): 0.22%
- Stability Autosampler RE (%) ([1]; spleen, nominal 3.0 µg/mL): -0.16%
- Stability Freeze-Thaw RE (%) ([1]; spleen, nominal 3.0 µg/mL): 4.87%
- Stability Long-Term RE (%) ([1]; spleen, nominal 3.0 µg/mL): 7.44%
- Stability Autosampler RE (%) ([1]; spleen, nominal 30.0 µg/mL): 1.18%
- Stability Freeze-Thaw RE (%) ([1]; spleen, nominal 30.0 µg/mL): 0.49%
- Stability Long-Term RE (%) ([1]; spleen, nominal 30.0 µg/mL): 2.92%
- amount of drug available in the plasma, LPS mice compared to healthy subjects [2]: three-fold higher
- Cmax [2, 3]: 1480 ± 190 ng/mL
- AUC(0-inf) ([2]; plasma, LPS-damaged ICR mice): 3210 ± 380 ng·h/mL
- MRT ([2]; plasma, LPS-damaged ICR mice): 2.77 ± 0.25 h
- Tmax ([2]; plasma, LPS-damaged ICR mice): 0.25 h
- half-life ([2]; plasma, LPS-damaged ICR mice): 1.49 ± 0.35 h
- AUC(0-t) ([2]; plasma, LPS-damaged ICR mice): 2950 ± 280 ng·h/mL
- AUC(0-inf) ([2]; plasma, healthy ICR mice): 1030 ± 140 ng·h/mL
- MRT ([2]; plasma, healthy ICR mice): 2.77 ± 0.35 h
- Tmax ([2]; plasma, healthy ICR mice): 0.95 ± 0.35 h
- half-life ([2]; plasma, healthy ICR mice): 1.66 ± 0.46 h
- Cmax ([2]; plasma, healthy ICR mice): 620 ± 340 ng/mL
- AUC(0-t) ([2]; plasma, healthy ICR mice): 920 ± 120 ng·h/mL
- Cl/F ([2]; plasma, LPS-damaged ICR mice): 32.50 ± 2.91 (mg/kg)/(μg/mL)/h
- Cl/F ([2]; plasma, healthy ICR mice): 103.7 ± 13.0 (mg/kg)/(μg/mL)/h
